Experimental data from patent US12559474B2, “Triazine derivatives having virus replication inhibitory activity and pharmaceutical composition comprising the same” (priority 2021, dated 2026).
Where “and” joins values, the source holds several entries; their conditions need not be identical. Identical values can stand only once.

biological target: SARS-CoV-2 3CL protease (Severe acute respiratory syndrome coronavirus 2, UniProt P0DTD1); test: biochemical; conditions: IC50

| SMILES | IC50 |
| --- | --- |
| CC(=O)N1CC(n2cc3cc(Nc4nc(=O)n(-c5cncc6ccccc56)c(=O)n4Cc4cc(F)c(F)c(F)c4)c(Cl)cc3n2)C1 [Compound I-0289] | < 0.1 µM |
| COc1ccc(Nc2cc(=O)n(Cc3ccc[nH]c3=O)c(=O)n2Cc2cc(F)c(F)c(F)c2)cc1 [Compound I-0326] | 0.065 µM |
| Cn1cc2cc(Nc3nc(=O)n(Cc4cc(C(=O)NC5CC5)c[nH]c4=O)c(=O)n3Cc3cc(F)c(F)c(F)c3)c(Cl)cc2n1 [Compound I-0333] | < 0.1 µM |
| COc1ccc(Nc2nc(=O)n(Cc3cc(C)on3)c(=O)n2Cc2cc(F)c(F)c(F)c2)cc1 [Compound I-0334] | 0.87 µM and 0.1 to 1 µM |
| COc1ccc(Nc2nc(=O)n(Cc3cc(C)[nH]n3)c(=O)n2Cc2cc(F)c(F)c(F)c2)cc1 [Compound I-0340] | 0.84 µM and 0.1 to 1 µM |
| N#Cc1cc(Cn2c(Nc3ccc4c(c3)CCO4)nc(=O)n(-c3cncc(CO)c3)c2=O)ccc1F [Compound I-0356] | < 0.1 µM |
| CN(C)C(=O)Cn1cc2cc(Nc3nc(=O)n(Cc4ccc[nH]c4=O)c(=O)n3Cc3cc(F)c(F)c(F)c3)c(Cl)cc2n1 [Compound I-0367] | < 0.1 µM |
| O=c1[nH]cccc1Cn1c(=O)nc(Nc2ccc(OCCO)cc2Cl)n(Cc2cc(F)c(F)c(F)c2)c1=O [Compound I-0371] | < 0.1 µM |
| COc1ccc(Nc2nc(=O)n(Cc3cc(-c4cccnc4)c[nH]c3=O)c(=O)n2Cc2cc(F)c(F)c(F)c2)cc1 [Compound I-0386] | < 0.1 µM |
| O=c1[nH]cccc1Cn1c(=O)nc(Nc2ccc(-c3cocn3)cc2Cl)n(Cc2cc(F)c(F)c(F)c2)c1=O [Compound I-0396] | 3.1 µM and 1 to 10 µM |
| O=C1OCCN1c1ccc(Nc2nc(=O)n(Cc3ccc[nH]c3=O)c(=O)n2Cc2cc(F)c(F)c(F)c2)c(Cl)c1 [Compound I-0397] | 0.73 µM and 0.1 to 1 µM |
| CCc1nc2cc(Cl)c(Nc3nc(=O)n(Cc4ccc[nH]c4=O)c(=O)n3Cc3cc(F)c(F)c(F)c3)cc2n1C [Compound I-0399] | < 0.1 µM |
| COc1ccc(Nc2nc(=O)n(Cc3cnc(C)[nH]c3=O)c(=O)n2Cc2cc(F)c(F)c(F)c2)cc1 [Compound I-0403] | 0.31 µM and 0.1 to 1 µM |
| Cn1cc2cc(Nc3nc(=O)n(Cc4c[nH]c(=O)[nH]c4=O)c(=O)n3Cc3cc(F)c(F)c(F)c3)c(Cl)cc2n1 [Compound I-0405] | < 0.1 µM |
| Cc1nc2cc(Cl)c(Nc3nc(=O)n(Cc4c[nH]c(=O)[nH]c4=O)c(=O)n3Cc3cc(F)c(F)c(F)c3)cc2n1C [Compound I-0407] | < 0.1 µM |
| COc1ccc(Nc2nc(=O)n(Cc3cn(-c4ccccc4)cn3)c(=O)n2Cc2cc(F)c(F)c(F)c2)cc1 [Compound I-0412] | 5.1 µM and 1 to 10 µM |
| COC(=O)Cn1cnc(Cn2c(=O)nc(Nc3ccc(OC)cc3)n(Cc3cc(F)c(F)c(F)c3)c2=O)c1 [Compound I-0414] | 0.25 µM and 0.1 to 1 µM |
| COc1ccc(Nc2nc(=O)n(Cc3cn(CCO)cn3)c(=O)n2Cc2cc(F)c(F)c(F)c2)cc1 [Compound I-0415] | 3 µM and 1 to 10 µM |
| COc1ccc(Nc2nc(=O)n(Cc3cn(CC(N)=O)cn3)c(=O)n2Cc2cc(F)c(F)c(F)c2)cc1 [Compound I-0416] | 3.5 µM and 1 to 10 µM |
| CN(C)CCn1cc2cc(Nc3nc(=O)n(Cc4ccc[nH]c4=O)c(=O)n3Cc3cc(F)c(F)c(F)c3)c(Cl)cc2n1 [Compound I-0427] | < 0.1 µM |
| CN1Cc2cc(Nc3nc(=O)n(Cc4ccc[nH]c4=O)c(=O)n3Cc3cc(F)c(F)c(F)c3)ccc2C1=O [Compound I-0438] | 0.74 µM and 0.1 to 1 µM |
| Cc1nc2cc(Cl)c(Nc3nc(=O)n(Cc4ccc[nH]c4=O)c(=O)n3Cc3cc(F)c(F)c(F)c3)cc2n1C [Compound I-0439] | < 0.1 µM |
| Cn1nnc2cc(Cl)c(Nc3nc(=O)n(Cc4ccc[nH]c4=O)c(=O)n3Cc3cc(F)c(F)c(F)c3)cc21 [Compound I-0440] | < 0.1 µM |

| SMILES | IC50 |
| --- | --- |
| Cc1cn2cc(Nc3nc(=O)n(Cc4ccc[nH]c4=O)c(=O)n3Cc3cc(F)c(F)c(F)c3)c(Cl)cc2n1 [Compound I-0441] | < 0.1 µM |
| Cc1nc2cc(Cl)c(Nc3nc(=O)n(Cc4ccc[nH]c4=O)c(=O)n3Cc3cc(F)c(F)c(F)c3)cn2n1 [Compound I-0442] | < 0.1 µM |
| COCCn1c(C)nc2cc(Cl)c(Nc3nc(=O)n(Cc4ccc[nH]c4=O)c(=O)n3Cc3cc(F)c(F)c(F)c3)cc21 [Compound I-0443] | < 0.1 µM |
| Cc1nc2cc(Cl)c(Nc3nc(=O)n(Cc4ccc[nH]c4=O)c(=O)n3Cc3cc(F)c(F)c(F)c3)cc2n1CC(C)(C)O [Compound I-0445] | < 0.1 µM |
| Cc1nc2cc(Cl)c(Nc3nc(=O)n(Cc4ccc[nH]c4=O)c(=O)n3Cc3cc(F)c(F)c(F)c3)cc2n1CCCS(C)(=O)=O [Compound I-0446] | < 0.1 µM |
| CC(=O)N1CC(n2cc3cc(Nc4nc(=O)n(Cc5ccc[nH]c5=O)c(=O)n4Cc4cc(F)c(F)c(F)c4)c(Cl)cc3n2)C1 [Compound I-0448] | < 0.1 µM |
| CC(=O)NCCn1cc2cc(Nc3nc(=O)n(Cc4ccc[nH]c4=O)c(=O)n3Cc3cc(F)c(F)c(F)c3)c(Cl)cc2n1 [Compound I-0449] | < 0.1 µM |
| CC(=O)NCCn1cc2cc(Nc3nc(=O)n(Cc4cc(Cl)c[nH]c4=O)c(=O)n3Cc3cc(F)c(F)c(F)c3)c(Cl)cc2n1 [Compound I-0453] | < 0.1 µM |
| CC(=O)Nc1nc2ccc(Nc3nc(=O)n(Cc4ccc[nH]c4=O)c(=O)n3Cc3cc(F)c(F)c(F)c3)cc2s1 [Compound I-0458] | < 0.1 µM |
| CNC(=O)COc1ccc(Nc2nc(=O)n(Cc3ccc[nH]c3=O)c(=O)n2Cc2cc(F)c(F)c(F)c2)c(Cl)c1 [Compound I-0463] | < 0.1 µM |
| O=C(O)COc1ccc(Nc2nc(=O)n(Cc3ccc[nH]c3=O)c(=O)n2Cc2cc(F)c(F)c(F)c2)c(Cl)c1 [Compound I-0464] | < 0.1 µM |
| O=c1[nH]cccc1Cn1c(=O)nc(Nc2cc3cn(CC4(CO)COC4)nc3cc2Cl)n(Cc2cc(F)c(F)c(F)c2)c1=O [Compound I-0469] | < 0.1 µM |
| CNC(=O)c1c[nH]c(=O)c(Cn2c(=O)nc(Nc3cc4cn(C)nc4cc3Cl)n(Cc3cc(F)c(F)c(F)c3)c2=O)c1 [Compound I-0477] | < 0.1 µM |
| CNC(=O)c1c[nH]c(=O)c(Cn2c(=O)nc(Nc3cc4c(cc3Cl)OCC4)n(Cc3cc(F)c(F)c(F)c3)c2=O)c1 [Compound I-0478] | < 0.1 µM |
| CNC(=O)Cn1c(=O)nc(Nc2cc3sc(C)nc3cc2C)n(Cc2cc(F)c(F)c(F)c2)c1=O [Compound I-0479] | 1 to 10 µM |
| Cn1cnc(Cn2cc3cc(Nc4nc(=O)n(Cc5ncn(C)n5)c(=O)n4Cc4cc(F)c(F)c(Cl)c4)c(Cl)cc3n2)n1 [II-0004] | < 0.1 µM |
| Cn1cc2cc(Nc3nc(=O)n(Cc4cc5ccsc5[nH]c4=O)c(=O)n3Cc3ccc(F)c(C#N)c3)ccc2n1 [II-0009] | < 0.1 µM |
| CC(=O)Nc1nc2cc(F)c(Nc3nc(=O)n(Cc4ncn(C)n4)c(=O)n3Cc3cc(F)c(F)c(Cl)c3)cc2s1 [II-0012] | < 0.1 µM |
| Cn1cnc(Cn2c(=O)nc(Nc3cc4c(=O)n(C)cnc4cc3Cl)n(Cc3cc(F)c(F)cc3F)c2=O)n1 [II-0013] | < 0.1 µM |
| Cc1nc2cc(Cl)c(Nc3nc(=O)n(Cc4ncn(C)n4)c(=O)n3Cc3cc(F)c(F)cc3F)cc2n1C [II-0019] | < 0.1 µM |
| Cc1cncc(-n2c(=O)nc(Nc3cc4cn(C)nc4cc3Cl)n(Cc3nc(Cl)c(Cl)n3C)c2=O)c1 [II-0021] | 3.6 µM |
| Cn1cnc(Cn2c(=O)nc(Nc3cc4cn(CCS(C)(=O)=O)nc4cc3Cl)n(Cc3cc(Cl)c(F)cc3F)c2=O)n1 [II-0033] | < 0.1 µM |
| CN(C)C(=O)c1ccc(Cn2c(=O)nc(Nc3ccc4c(c3)CCCO4)n(Cc3cc(F)c(F)c(F)c3)c2=O)c(=O)[nH]1 [II-0042] | < 0.1 µM |
